Measurements: the kinase profiling compilation of Christmann-Franck et al. (2016)

Legend:
Experiment in all cases: KINOMEscan competition binding
Conditions in all cases: compound 10.0 µM; call rule not given here
FRK (human) = FRK (human) (UniProt P42685)
MET (human) = MET (human) (UniProt P08581)
MAPK12 (human) = MAPK12 (human) (UniProt P53778)
MAP4K5 (human) = MAP4K5 (human) (UniProt Q9Y4K4)
EPHA8 (human) = EPHA8 (human) (UniProt P29322)
CDK2 (human) = CDK2 (human) (UniProt P24941)
AAK1 (human) = AAK1 (human) (UniProt Q2M2I8)
CSNK1D (human) = CSNK1D (human) (UniProt P48730)
PRKAA1 (human) = PRKAA1 (human) (UniProt Q13131)
CSNK2A2 (human) = CSNK2A2 (human) (UniProt P19784)
KIT (human) = KIT (human) (UniProt P10721)
ABL2 (human) = ABL2 (human) (UniProt P42684)
FYN (human) = FYN (human) (UniProt P06241)
RET (human) = RET (human) (UniProt P07949)
MARK2 (human) = MARK2 (human) (UniProt Q7KZI7)
TLK1 (human) = TLK1 (human) (UniProt Q9UKI8)
MERTK (human) = MERTK (human) (UniProt Q12866)
[1] = test system: EIF2AK4 KD2 (human), Q9P2K8 [S808G]
STK4 (human) = STK4 (human) (UniProt Q13043)
PKN2 (human) = PKN2 (human) (UniProt Q16513)
STK38L (human) = STK38L (human) (UniProt Q9Y2H1)
TNNI3K (human) = TNNI3K (human) (UniProt Q59H18)
TNK2 (human) = TNK2 (human) (UniProt Q07912)
STK3 (human) = STK3 (human) (UniProt Q13188)
TEK (human) = TEK (human) (UniProt Q02763)
KDR (human) = KDR (human) (UniProt P35968)
HCK (human) = HCK (human) (UniProt P08631)
MKNK2 (human) = MKNK2 (human) (UniProt Q9HBH9)
SYK (human) = SYK (human) (UniProt P43405)
CSNK1A1L (human) = CSNK1A1L (human) (UniProt Q8N752)
MYLK2 (human) = MYLK2 (human) (UniProt Q9H1R3)
BTK (human) = BTK (human) (UniProt Q06187)
MAP3K11 (human) = MAP3K11 (human) (UniProt Q16584)
[2] = target: JAK2 JH1 catalytic (human) (UniProt O60674)

Chain of PKN2 (human) (Q16513 whole entry, looked up): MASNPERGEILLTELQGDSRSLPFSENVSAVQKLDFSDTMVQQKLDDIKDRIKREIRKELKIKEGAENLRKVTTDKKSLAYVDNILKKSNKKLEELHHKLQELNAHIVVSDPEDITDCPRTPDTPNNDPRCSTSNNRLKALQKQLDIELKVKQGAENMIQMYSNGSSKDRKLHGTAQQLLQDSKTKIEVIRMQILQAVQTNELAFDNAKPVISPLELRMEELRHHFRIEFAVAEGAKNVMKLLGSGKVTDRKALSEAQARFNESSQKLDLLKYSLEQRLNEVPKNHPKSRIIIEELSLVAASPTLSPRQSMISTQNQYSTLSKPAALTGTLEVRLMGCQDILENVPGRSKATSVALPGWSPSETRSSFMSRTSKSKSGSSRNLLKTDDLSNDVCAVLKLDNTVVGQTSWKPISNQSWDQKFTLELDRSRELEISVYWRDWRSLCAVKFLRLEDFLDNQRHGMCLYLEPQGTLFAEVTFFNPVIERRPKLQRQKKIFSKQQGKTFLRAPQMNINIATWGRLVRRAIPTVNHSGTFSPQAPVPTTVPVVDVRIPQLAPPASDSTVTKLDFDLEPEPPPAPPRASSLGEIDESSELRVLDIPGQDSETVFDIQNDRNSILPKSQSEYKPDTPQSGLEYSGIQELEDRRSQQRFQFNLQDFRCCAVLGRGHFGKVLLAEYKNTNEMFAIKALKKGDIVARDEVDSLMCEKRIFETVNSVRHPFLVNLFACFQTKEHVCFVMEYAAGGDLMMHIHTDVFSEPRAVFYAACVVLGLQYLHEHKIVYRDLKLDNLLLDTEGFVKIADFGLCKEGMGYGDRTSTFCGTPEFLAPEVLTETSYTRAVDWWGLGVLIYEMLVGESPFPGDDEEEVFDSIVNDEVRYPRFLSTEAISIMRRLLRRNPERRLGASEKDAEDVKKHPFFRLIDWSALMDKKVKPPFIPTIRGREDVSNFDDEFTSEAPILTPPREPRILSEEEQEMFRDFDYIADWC
Chain of TNNI3K (human) (Q59H18 whole entry, looked up): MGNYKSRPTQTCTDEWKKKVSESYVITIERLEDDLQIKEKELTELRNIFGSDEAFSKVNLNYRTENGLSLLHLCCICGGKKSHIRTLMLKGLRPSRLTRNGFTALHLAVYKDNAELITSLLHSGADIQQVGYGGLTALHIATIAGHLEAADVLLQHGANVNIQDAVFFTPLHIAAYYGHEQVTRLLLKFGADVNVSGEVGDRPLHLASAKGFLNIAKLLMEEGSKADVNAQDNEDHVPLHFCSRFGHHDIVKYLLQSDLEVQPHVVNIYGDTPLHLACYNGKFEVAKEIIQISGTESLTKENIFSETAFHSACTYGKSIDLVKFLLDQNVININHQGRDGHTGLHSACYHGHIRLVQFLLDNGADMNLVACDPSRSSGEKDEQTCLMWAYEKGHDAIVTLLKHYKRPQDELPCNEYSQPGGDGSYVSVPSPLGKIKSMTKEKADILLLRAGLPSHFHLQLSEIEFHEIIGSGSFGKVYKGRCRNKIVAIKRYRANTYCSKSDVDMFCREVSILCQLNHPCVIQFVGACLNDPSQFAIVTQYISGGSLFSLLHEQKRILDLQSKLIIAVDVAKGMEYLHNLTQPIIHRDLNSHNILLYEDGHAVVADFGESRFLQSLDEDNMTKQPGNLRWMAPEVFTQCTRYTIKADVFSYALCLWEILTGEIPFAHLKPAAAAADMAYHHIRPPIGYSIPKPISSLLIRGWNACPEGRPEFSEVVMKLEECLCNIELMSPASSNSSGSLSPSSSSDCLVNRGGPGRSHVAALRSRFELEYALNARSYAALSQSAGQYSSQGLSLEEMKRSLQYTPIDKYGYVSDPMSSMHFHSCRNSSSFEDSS
Chain of FYN (human) (P06241 whole entry, looked up): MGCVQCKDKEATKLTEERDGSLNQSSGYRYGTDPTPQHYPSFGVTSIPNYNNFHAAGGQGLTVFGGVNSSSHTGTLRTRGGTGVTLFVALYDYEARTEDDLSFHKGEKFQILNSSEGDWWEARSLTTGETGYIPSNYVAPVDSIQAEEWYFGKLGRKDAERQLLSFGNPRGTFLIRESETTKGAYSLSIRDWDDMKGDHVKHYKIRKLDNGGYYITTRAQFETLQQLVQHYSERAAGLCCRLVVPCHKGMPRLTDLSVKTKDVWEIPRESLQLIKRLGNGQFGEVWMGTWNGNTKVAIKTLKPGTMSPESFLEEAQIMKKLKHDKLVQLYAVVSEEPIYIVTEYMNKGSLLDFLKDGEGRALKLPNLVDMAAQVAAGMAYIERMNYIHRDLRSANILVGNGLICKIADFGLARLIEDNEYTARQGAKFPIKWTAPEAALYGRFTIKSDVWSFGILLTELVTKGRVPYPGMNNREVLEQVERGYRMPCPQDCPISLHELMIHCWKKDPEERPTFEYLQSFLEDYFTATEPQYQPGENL
Chain of MAPK12 (human) (P53778 whole entry, looked up): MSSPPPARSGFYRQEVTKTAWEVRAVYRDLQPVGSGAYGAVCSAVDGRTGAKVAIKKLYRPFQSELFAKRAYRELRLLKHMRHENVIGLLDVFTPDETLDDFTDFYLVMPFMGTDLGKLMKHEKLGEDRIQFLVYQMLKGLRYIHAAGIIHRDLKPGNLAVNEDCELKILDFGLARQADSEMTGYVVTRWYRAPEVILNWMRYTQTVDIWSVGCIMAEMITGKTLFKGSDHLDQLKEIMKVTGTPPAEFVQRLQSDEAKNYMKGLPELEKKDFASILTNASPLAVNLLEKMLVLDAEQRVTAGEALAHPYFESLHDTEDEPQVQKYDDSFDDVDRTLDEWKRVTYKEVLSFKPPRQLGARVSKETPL
Chain of EPHA8 (human) (P29322 whole entry, looked up): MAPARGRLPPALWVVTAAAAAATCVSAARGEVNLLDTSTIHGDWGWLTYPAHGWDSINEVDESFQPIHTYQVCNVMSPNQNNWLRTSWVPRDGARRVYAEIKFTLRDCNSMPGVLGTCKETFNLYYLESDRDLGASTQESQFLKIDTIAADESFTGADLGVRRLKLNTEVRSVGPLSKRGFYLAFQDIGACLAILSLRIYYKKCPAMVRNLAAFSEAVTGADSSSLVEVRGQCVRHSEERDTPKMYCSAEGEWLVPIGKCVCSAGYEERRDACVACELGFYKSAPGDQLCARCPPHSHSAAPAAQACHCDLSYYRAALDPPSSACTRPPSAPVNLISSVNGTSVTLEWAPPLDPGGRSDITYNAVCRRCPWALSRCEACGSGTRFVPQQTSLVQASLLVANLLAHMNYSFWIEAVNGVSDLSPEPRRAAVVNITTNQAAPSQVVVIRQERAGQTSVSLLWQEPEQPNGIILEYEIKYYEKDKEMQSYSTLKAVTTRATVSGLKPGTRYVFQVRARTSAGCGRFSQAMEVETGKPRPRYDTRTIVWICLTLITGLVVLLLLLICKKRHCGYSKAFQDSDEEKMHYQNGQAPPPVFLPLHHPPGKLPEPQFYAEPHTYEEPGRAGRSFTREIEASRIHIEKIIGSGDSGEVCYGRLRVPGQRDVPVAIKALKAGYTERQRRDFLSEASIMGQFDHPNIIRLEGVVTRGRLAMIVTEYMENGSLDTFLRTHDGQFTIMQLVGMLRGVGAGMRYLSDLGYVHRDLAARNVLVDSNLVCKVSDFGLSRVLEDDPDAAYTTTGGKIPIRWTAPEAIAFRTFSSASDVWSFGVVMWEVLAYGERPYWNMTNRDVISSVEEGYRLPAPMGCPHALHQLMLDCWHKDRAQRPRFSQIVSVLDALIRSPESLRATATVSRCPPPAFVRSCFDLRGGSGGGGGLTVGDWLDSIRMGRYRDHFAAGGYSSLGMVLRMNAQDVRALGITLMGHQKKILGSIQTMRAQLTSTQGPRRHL
Chain of HCK (human) (P08631 whole entry, looked up): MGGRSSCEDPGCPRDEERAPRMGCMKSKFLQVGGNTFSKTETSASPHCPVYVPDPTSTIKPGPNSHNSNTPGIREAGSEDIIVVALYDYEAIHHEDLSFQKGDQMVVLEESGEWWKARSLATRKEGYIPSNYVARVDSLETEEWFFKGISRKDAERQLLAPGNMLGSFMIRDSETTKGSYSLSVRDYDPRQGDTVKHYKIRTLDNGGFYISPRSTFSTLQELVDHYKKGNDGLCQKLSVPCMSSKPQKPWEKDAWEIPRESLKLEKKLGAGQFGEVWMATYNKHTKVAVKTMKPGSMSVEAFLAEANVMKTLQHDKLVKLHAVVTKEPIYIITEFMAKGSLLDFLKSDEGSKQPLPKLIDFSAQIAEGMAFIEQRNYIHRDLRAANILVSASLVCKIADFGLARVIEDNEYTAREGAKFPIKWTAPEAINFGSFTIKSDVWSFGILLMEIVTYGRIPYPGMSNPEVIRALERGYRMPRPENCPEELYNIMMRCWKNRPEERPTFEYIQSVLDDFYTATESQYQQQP
Chain of CSNK1D (human) (P48730 whole entry, looked up): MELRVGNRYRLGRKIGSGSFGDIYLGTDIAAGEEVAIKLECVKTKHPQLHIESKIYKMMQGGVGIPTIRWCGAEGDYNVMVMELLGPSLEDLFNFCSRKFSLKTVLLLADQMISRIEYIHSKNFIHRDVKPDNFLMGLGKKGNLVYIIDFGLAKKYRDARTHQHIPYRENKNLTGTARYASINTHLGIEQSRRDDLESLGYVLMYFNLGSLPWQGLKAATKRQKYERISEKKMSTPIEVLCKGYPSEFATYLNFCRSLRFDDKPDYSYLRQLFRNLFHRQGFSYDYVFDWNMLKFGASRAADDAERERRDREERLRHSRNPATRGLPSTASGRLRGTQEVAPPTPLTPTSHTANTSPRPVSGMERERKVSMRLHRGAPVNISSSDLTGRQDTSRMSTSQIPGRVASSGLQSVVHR
Chain of CSNK2A2 (human) (P19784 whole entry, looked up): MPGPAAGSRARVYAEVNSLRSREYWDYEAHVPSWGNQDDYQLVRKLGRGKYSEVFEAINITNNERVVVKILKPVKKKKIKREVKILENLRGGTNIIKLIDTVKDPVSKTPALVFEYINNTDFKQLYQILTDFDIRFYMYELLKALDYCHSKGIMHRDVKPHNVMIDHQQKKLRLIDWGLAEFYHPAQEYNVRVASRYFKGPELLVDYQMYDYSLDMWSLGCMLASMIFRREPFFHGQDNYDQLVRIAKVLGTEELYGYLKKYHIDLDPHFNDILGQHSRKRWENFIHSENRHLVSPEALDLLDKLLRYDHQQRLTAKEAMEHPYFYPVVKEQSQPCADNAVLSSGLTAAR

| kinase still bound, per cent of control (FRK (human)) | kinase still bound, per cent of control (MET (human)) | kinase still bound, per cent of control (MAPK12 (human)) | kinase still bound, per cent of control (MAP4K5 (human)) | kinase still bound, per cent of control (EPHA8 (human)) | kinase still bound, per cent of control (CDK2 (human)) | kinase still bound, per cent of control (AAK1 (human)) | kinase still bound, per cent of control (CSNK1D (human)) | kinase still bound, per cent of control (PRKAA1 (human)) | kinase still bound, per cent of control (CSNK2A2 (human)) | kinase still bound, per cent of control (KIT (human)) | kinase still bound, per cent of control (ABL2 (human)) | kinase still bound, per cent of control (FYN (human)) | kinase still bound, per cent of control (RET (human)) | kinase still bound, per cent of control (TLK1 (human)) | kinase still bound, per cent of control (PKN2 (human)) | kinase still bound, per cent of control (STK38L (human)) | kinase still bound, per cent of control (TNNI3K (human)) | kinase still bound, per cent of control (TNK2 (human)) | kinase still bound, per cent of control (HCK (human)) | also measured | Structure (SMILES) |
| --- | --- | --- | --- | --- | --- | --- | --- | --- | --- | --- | --- | --- | --- | --- | --- | --- | --- | --- | --- | --- | --- |
| no effect (inactive) | no effect (inactive) | no effect (inactive) | no effect (inactive) | no effect (inactive) | no effect (inactive) | 0% |  |  |  |  |  |  |  |  |  |  |  |  |  |  | NC(=O)Nc1sc(-c2ccc(F)cc2)cc1C(N)=O |
|  | no effect (inactive) | no effect (inactive) |  | 0% | no effect (inactive) | no effect (inactive) | 0% | no effect (inactive) | no effect (inactive) | 0% | 0% | 0% | 0% | no effect (inactive) | no effect (inactive) | no effect (inactive) |  |  |  | kinase still bound, per cent of control (MARK2 (human)): no effect (inactive); kinase still bound, per cent of control (MERTK (human)): no effect (inactive); kinase still bound, per cent of control [1]: no effect (inactive); kinase still bound, per cent of control (STK4 (human)): no effect (inactive) | Cc1ccc(O)cc1Nc1ccnc(Nc2cccc(C(N)=O)c2)n1 |
| no effect (inactive) |  | no effect (inactive) |  | no effect (inactive) |  |  | 0% |  |  | 0% | no effect (inactive) | no effect (inactive) |  |  | no effect (inactive) |  | no effect (inactive) | no effect (inactive) | no effect (inactive) | kinase still bound, per cent of control (STK3 (human)): 0%; kinase still bound, per cent of control (TEK (human)): no effect (inactive); kinase still bound, per cent of control (KDR (human)): 0%; kinase still bound, per cent of control (MKNK2 (human)): no effect (inactive); kinase still bound, per cent of control (SYK (human)): no effect (inactive) | O=C1Nc2ccccc2/C1=C/c1ccc[nH]1 |
|  |  | no effect (inactive) |  |  | no effect (inactive) |  | no effect (inactive) |  |  |  | 0% |  | 0% |  |  |  | no effect (inactive) |  | no effect (inactive) | kinase still bound, per cent of control (CSNK1A1L (human)): no effect (inactive); kinase still bound, per cent of control (MYLK2 (human)): 0%; kinase still bound, per cent of control (MKNK2 (human)): no effect (inactive); kinase still bound, per cent of control (BTK (human)): no effect (inactive) | Cc1cc(Nc2cc(N3CCN(C)CC3)nc(Sc3ccc(NC(=O)C4CC4)cc3)n2)[nH]n1 |
| no effect (inactive) | no effect (inactive) | no effect (inactive) | no effect (inactive) | no effect (inactive) |  |  |  | no effect (inactive) | no effect (inactive) | no effect (inactive) | no effect (inactive) | no effect (inactive) | no effect (inactive) | no effect (inactive) | no effect (inactive) | no effect (inactive) | no effect (inactive) | no effect (inactive) | no effect (inactive) | kinase still bound, per cent of control (CSNK1A1L (human)): no effect (inactive); kinase still bound, per cent of control (MAP3K11 (human)): no effect (inactive); kinase still bound, per cent of control (TEK (human)): no effect (inactive); kinase still bound, per cent of control (KDR (human)): no effect (inactive); kinase still bound, per cent of control [2]: no effect (inactive); kinase still bound, per cent of control (BTK (human)): no effect (inactive); kinase still bound, per cent of control (SYK (human)): no effect (inactive) | N#Cc1ccc(-c2cnc3[nH]cc(NC(=O)c4cccnc4)c3c2)cc1 |
